The numbers were not newly measured in patent publication US20180185509A1, “AMATOXIN-CONJUGATES WITH IMPROVED LINKAGES” (Heidelberg Pharma GmbH, priority 2011, published 2018), which cites them from elsewhere.

The data set addresses RNA-polymerase II (Homo sapiens, UniProt P24928). The conditions noted are these: read-out: KD of the complex between amanitin and RNA-polymerase II.

pKd: −log10 of the molar value.

Consider amanitin, for which the pKd was 8.52.
